Values of other authors as cited in patent US4318847A, “Physiologically active tetrapeptides” (Zaidan Hojin Biseibutsu Kagaku Kenkyu Kai, priority 1979, dated 1982).
*1 amine or outer side, *2 acyl side, *3 side chain or, on linkers, in order; H or OH if unused. Where a SMILES comes first, the peptide text is derived from it. [ ]: non-standard residue; d: D form. The star is where a group is joined. Sta = CC(C)C[C@H](N)[C@@H](O)CC(=O)O; Isovaleryl = CC(C)CC(=O)*; CO = O=C([*:1])[*:2]

Legend:
leucine aminopeptidase = leucine aminopeptidase (Homo sapiens, UniProt P28838); settings: prior art, U.S. Pat. No. 4,029,547; cited from earlier work
Chain of leucine aminopeptidase (P28838 whole entry): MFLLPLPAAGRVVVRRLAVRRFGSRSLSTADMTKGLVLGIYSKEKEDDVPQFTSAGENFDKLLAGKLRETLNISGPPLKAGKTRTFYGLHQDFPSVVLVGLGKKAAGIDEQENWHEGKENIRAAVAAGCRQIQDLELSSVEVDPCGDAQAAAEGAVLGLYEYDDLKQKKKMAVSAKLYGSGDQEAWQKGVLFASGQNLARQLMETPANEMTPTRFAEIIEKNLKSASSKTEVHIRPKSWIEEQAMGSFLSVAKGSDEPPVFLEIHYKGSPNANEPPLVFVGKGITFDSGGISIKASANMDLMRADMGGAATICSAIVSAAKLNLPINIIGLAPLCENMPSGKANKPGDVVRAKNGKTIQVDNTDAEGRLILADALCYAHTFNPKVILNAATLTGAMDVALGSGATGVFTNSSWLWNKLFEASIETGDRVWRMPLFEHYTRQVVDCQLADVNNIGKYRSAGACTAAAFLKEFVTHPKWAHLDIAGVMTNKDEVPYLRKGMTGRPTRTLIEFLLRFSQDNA

aminopeptidase A = aminopeptidase A (Homo sapiens, UniProt Q07075); settings: prior art; cited from earlier work
Chain of aminopeptidase A (Q07075 whole entry, species assumed): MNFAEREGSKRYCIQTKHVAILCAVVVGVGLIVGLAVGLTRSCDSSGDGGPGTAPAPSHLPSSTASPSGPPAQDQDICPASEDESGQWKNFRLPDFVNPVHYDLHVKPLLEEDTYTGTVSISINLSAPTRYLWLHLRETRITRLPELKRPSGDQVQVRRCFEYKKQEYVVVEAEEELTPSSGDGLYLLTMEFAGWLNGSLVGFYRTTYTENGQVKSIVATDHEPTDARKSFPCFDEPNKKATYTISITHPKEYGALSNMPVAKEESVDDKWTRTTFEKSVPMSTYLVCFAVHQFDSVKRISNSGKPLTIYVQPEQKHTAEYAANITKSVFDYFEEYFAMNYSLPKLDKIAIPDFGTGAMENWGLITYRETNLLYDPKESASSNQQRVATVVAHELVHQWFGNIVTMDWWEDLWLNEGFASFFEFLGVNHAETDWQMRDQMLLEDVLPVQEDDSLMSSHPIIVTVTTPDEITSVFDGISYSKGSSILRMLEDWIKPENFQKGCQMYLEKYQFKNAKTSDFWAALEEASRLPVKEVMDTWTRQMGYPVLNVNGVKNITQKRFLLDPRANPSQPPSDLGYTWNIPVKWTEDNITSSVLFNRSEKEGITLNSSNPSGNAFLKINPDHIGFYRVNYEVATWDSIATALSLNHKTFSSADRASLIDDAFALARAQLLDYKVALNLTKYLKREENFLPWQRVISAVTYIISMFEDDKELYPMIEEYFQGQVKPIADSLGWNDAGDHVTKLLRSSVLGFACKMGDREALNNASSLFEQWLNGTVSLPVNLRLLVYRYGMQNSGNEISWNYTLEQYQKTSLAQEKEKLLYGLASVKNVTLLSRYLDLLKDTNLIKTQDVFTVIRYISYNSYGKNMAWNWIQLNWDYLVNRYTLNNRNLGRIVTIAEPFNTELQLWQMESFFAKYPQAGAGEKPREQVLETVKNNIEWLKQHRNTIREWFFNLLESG

aminopeptidase B = aminopeptidase B (Homo sapiens, UniProt Q9H4A4); settings: prior art, U.S. Pat. No. 4,029,547; cited from earlier work
Chain of aminopeptidase B (Q9H4A4 whole entry, species assumed): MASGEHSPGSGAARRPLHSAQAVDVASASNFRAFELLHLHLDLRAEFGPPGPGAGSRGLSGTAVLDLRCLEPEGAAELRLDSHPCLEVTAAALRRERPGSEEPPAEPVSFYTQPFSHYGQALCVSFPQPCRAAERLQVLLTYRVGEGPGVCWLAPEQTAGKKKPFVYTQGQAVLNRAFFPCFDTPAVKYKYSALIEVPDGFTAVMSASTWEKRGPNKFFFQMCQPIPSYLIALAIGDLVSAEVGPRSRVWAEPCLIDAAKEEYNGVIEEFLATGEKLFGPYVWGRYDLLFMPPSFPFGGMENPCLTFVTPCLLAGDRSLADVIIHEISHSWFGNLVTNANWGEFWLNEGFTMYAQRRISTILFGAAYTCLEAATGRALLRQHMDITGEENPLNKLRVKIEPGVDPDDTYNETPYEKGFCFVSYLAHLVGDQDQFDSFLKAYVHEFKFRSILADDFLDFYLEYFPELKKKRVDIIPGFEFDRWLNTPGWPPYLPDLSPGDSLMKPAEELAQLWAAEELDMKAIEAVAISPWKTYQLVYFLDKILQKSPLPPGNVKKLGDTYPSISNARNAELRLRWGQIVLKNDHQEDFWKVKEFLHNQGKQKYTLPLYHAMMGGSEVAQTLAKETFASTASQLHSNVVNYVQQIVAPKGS

papain = biological target: T1, papain (Carica papaya, UniProt P00784); settings: prior art; cited from earlier work
T1 sequence (P00784 134-345): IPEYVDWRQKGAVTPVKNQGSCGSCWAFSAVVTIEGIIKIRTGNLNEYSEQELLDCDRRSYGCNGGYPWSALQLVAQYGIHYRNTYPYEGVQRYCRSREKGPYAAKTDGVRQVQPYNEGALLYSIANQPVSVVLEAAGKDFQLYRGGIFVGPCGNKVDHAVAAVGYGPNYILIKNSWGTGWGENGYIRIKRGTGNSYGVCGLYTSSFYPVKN

trypsin = biological target: T2, trypsin (Bos taurus, UniProt P00760); settings: prior art; cited from earlier work
T2 construct: gene PRSS1
T2 sequence (P00760 24-246): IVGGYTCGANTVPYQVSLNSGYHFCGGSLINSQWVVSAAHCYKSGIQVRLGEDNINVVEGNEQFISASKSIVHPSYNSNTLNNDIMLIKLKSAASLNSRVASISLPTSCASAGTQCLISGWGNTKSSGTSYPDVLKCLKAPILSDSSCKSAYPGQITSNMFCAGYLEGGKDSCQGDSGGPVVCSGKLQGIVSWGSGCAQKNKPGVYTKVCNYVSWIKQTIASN

pepsin = pepsin (Homo sapiens, UniProt P0DJD8); settings: prior art; cited from earlier work
Chain of pepsin (P0DJD8 63-388): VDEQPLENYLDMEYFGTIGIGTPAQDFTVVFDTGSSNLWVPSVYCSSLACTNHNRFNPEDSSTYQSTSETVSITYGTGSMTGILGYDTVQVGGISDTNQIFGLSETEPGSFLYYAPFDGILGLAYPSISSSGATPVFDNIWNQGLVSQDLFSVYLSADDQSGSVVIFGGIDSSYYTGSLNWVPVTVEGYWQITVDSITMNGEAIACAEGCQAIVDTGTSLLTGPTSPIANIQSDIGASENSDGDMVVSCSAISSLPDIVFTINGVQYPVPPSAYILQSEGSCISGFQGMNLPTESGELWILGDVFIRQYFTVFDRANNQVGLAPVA

For `CC(C)C[C@H](NC(=O)[C@@H](O)[C@H](N)Cc1ccccc1)C(=O)O` [Bestatin, [(2S,3R)-3-amino-2-hydroxy-4-phenylbutanoyl]-L-leucine], which “inhibition of leucine aminopeptidase” value (leucine aminopeptidase) is on record?
The value was “inhibits”.

What about the “inhibition of aminopeptidase A” value (aminopeptidase A) of the same compound?
The value was “does not have any inhibitory effect”.

And the “inhibition of aminopeptidase B” value (aminopeptidase B)?
Its value is “inhibits”.

Which inhibition of papain (papain) does the source give for `CC(C)[C@H](NC(=O)[C@H](CCCNC(=N)N)NC(=O)N[C@@H](Cc1ccccc1)C(=O)O)C(=O)N[C@H](C=O)CCCNC(=N)N` [antipain] ({Phe-CO}-Arg-Val-Arg-aldehyde) here?
The inhibition of papain was “inhibit”.

For `CC(=O)N[C@@H](CC(C)C)C(=O)N[C@@H](CC(C)C)C(=O)N[C@H](C=O)CCCNC(=N)N` [leupeptin], which inhibition of trypsin (trypsin) is on record?
The inhibition of trypsin was “inhibit”.

With `CC(C)CC(=O)N[C@H](C(=O)N[C@H](C(=O)N[C@@H](CC(C)C)[C@@H](O)CC(=O)N[C@@H](C)C(=O)N[C@@H](CC(C)C)[C@@H](O)CC(=O)O)C(C)C)C(C)C` [pepstatin] (Isovaleryl-VV[Sta]A[Sta]-OH) as the compound, how does the inhibition of pepsin (pepsin) read?
The inhibition of pepsin was “inhibit”.
